Patent US11428689B2, “Methods and uses for remotely triggered protease activity measurements” (Massachusetts Institute of Technology, priority 2016, dated 2022)
Entries after “also recorded” stand apart in the source; their conditions may differ. Where no end group is shown, it is not given here. [ ]: non-standard residue; d: D form. FAM = fluorescein

Tests used:
[1] = molecular target: plasmin (Homo sapiens, UniProt P00747); assay: Proteolysis of alternate DMNPE-veiled substrate; format: biochemical
Sequence of plasmin (P00747 581-810 limits assumed, species assumed): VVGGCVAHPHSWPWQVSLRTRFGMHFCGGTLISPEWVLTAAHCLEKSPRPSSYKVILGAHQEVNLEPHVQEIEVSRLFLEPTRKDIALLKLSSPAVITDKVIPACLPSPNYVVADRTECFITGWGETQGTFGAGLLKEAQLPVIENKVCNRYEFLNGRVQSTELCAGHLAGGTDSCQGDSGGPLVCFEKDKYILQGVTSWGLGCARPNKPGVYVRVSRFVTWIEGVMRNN
Sequence of plasmin (P00747 97-580 partner limits assumed, species assumed): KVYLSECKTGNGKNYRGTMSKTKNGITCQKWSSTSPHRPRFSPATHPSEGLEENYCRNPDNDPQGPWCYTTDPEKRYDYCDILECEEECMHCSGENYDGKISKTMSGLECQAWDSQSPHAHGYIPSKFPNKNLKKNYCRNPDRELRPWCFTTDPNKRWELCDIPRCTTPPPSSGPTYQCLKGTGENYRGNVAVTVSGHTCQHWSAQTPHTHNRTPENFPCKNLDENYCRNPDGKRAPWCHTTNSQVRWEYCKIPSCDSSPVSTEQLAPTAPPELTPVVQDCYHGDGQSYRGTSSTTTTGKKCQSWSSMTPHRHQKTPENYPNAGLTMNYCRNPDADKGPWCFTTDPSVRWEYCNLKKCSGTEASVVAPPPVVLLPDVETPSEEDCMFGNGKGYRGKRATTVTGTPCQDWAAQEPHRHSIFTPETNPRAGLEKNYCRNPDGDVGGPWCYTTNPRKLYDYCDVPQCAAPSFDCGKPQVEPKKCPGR
From the text: To validate that the approach is generalizable to alternative substrates, the STREAMs principle was applied to a second peptide sequence. Additionally, the reporter for this additional sequence was designed to be orthogonal to the original sequence (containing a near IR dye as opposed to fluorescein). […] The ability to produce STREAMs with orthogonal reporters for multiple substrate targets, in some embodiments, enables multiplexing. Additionally, coupling this approach with alternate modes for multiplexing analyte detection, in some embodiments, enables simultaneous monitoring of several substrates.
Fluorescein-conjugated peptides (MMP sensitive, C1: FAM-sk-PLGLEEA-GC; SEQ ID NO: 3) were synthesized. D-amino acid controls were also synthesized, where the substrate sequence was all D-stereoisomers. Peptides for in vivo studies that contain a ligand-encoded reporter for urinary clearance and subsequent ELISA detection were synthesized (V1: Biotin-PEG(5 kDa)-(KFAM)-PLGLEEA-GC; SEQ ID NO: 4). The PEG 5 kDa reporter is efficiently cleared by the renal system into the urine and can be quantified by ELISA for the conjugated ligands. The alternate substrate to show STREAMs extensibility was synthesized at a different location (sequence: eGvndneeGffsarKsRLVGEGC; SEQ ID NO: 5). VT750 (PerkinElmer) was conjugated to the free lysine prior to coupling to DMNPE. […]

[2] = molecular target: T1, MMP7 (Homo sapiens, UniProt P09237); assay: In vitro recombinant protease assay (fluorescence dequenching of NP-bound substrate); format: biochemical; settings: 100 μM final concentration
T1 construct: purchased Enzo Life Sciences
T1 sequence (P09237 95-267): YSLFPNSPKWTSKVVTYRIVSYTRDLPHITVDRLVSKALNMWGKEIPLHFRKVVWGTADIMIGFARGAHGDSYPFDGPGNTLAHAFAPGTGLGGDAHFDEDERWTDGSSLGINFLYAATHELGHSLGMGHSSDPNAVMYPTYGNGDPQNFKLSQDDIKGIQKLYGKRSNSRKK
Experimental: (§1) C1-NP complexes sensitive to MMP cleavage were mixed with 1% (wt/vol) BSA (Sigma) and incubated with recombinant proteases (MMPs and ADAMs: Enzo Life Sciences; Clotting proteases: Haematologic Technologies) in a final volume of 100 μL in enzyme-specific buffers (MMP buffer: 50 mM Tris, 150 mM NaCl, 5 mM CaCl2, 1 μM ZnCl2, pH 7.5; Clotting proteases: PBS) in a 384-well plate for time-lapse fluorimetry to measure dequenching from homoquenched peptides at 37° C. (SpectroMax Gemini EM Microplate Reader). For the metalloproteinase, enzymes were diluted 1:10 in enzyme specific buffer, and for clotting proteases, enzymes were diluted 1:100. Cleavage heatmap was generated using GENE-E (Broad Institute). Michaelis-Menten constants were determined by assessing initial cleavage velocities at different substrate concentrations. The MMP inhibitor Marimatstat (Tocris) was added to the mixture at 100 μM final concentration. To identify the cleavage position by MMP9, C1-NPs were incubated with MMP9 overnight, and the N-terminal cleavage fragment was isolated and analyzed by MALDI. The sequence corresponding to the dominant peak was identified, and the final amino acid was in that sequence represents the P1 position (toward the N-terminal end from scissile bond). For protease resistance assays, various DMNPE: peptide ratios were reacted overnight and purified prior to being added to proteases.

[3] = tested on: LS174T; assay: Secreted protease activity assay with quenched substrates; format: cell-based, human; settings: for cleavage by cell-secreted proteases: fluorescently quenched versions, LS174T conditioned supernatant
Experimental: Next, whether the MAPS(S1-S3) could distinguish MMP profiles of different tumor types was probed. […] Cleavage of the substrates was tested by cell-secreted proteases by employing fluorescently quenched versions and exposing them to conditioned supernatant.
LS174T and HCT-8 cells were cultured in Eagle's Minimal Essential Medium (ATCC) supplemented with 10% FBS (Gibco) and 1% penicillin-streptomycin (CellGro). Cells were passaged when confluence reached 80%. To isolate secreted proteases, after cells were plated, cells were washed and replaced in serum-free media. Media was collected and MMP2 was measured in supernatant using a Quantikine MMP-2 kit following manufacturer protocols (R&D Systems). Secretion was normalized to number of cells and days in culture. A similar approach was used when collecting supernatants for measuring proteolysis of S1-3.

[4] = molecular target: T2, MMP2 (Homo sapiens, UniProt P08253); assay: In vitro recombinant protease assay with streptavidin depletion; format: biochemical; settings: ~100 nM MMP, one hour
T2 construct: purchased Enzo Life Sciences
T2 sequence (P08253 110-660): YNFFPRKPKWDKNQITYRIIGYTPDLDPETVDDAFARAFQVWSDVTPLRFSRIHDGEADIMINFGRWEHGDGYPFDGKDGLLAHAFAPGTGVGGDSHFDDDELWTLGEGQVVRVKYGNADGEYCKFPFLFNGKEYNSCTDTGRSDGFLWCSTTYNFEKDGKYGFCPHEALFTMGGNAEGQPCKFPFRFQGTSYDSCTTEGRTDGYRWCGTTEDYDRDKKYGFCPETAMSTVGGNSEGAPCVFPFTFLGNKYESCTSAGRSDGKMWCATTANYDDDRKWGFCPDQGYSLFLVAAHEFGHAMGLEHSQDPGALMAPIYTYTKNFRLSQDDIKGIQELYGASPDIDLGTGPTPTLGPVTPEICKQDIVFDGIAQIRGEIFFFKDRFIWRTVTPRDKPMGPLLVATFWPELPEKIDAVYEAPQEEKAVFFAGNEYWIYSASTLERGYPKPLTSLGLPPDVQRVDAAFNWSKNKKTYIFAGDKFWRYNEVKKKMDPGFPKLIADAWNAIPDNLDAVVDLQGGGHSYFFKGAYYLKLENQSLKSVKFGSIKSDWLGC
Experimental: (§2) MMPs (˜100 nM working concentration, Enzo Life Sciences) were added to substrates in 384-well plates in activity buffer (50 mM Tris, 150 mM NaCl, 5 mM CaCl2, 1 μM ZnCl2) containing 1% BSA. After one hour, uncleaved peptide was extracted using Dynabeads Strepatividin C1 (Life Technologies) as per manufacturer protocols. An excess of Dynabeads was used.

[5] = tested on: LS174T flank tumor; settings: LS174T tumor-bearing mice
From the text: (§3) The in vivo activation protocol was applied to specifically activate the three sets of MAPS to profile tumor protease activity between LS174T and HCT8 tumors.

[6] = molecular target: T3, MMP9 (Homo sapiens, UniProt P14780); assay: In vitro recombinant protease assay with streptavidin depletion; format: biochemical; set-up: purchased Enzo Life Sciences; settings: ~100 nM MMP, one hour
T3 sequence (P14780 94-707, species assumed): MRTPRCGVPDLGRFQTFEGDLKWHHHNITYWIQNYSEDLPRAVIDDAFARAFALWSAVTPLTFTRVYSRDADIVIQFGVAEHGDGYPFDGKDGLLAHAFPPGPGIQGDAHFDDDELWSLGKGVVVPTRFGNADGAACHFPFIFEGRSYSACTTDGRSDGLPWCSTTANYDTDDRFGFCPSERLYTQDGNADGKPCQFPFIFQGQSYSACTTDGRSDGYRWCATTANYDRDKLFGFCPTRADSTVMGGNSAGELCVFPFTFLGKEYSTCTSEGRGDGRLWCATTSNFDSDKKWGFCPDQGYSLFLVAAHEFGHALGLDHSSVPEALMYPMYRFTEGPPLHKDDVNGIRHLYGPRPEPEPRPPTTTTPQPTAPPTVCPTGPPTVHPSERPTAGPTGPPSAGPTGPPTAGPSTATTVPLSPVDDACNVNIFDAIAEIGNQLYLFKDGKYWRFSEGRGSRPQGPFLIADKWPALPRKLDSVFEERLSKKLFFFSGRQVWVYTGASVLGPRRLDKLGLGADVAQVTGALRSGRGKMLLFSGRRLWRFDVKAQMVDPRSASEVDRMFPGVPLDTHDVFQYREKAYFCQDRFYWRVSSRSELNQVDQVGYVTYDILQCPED
Experimental: as §2

[7] = molecular target: T3, MMP9; assay: Agarose gel assay; format: biochemical; settings: light exposure 1 min, 200 mW/cm^2
Experimental: Agarose (type I-A, Sigma) was dissolved in MMP9 specific buffer (1% w/v) and heated. As the gel mixture was cooling, gel solution was transferred into a 96-well plate and mixed with STREAMs and recombinant MMP9. After gelation, the gels were activated (as above), and fluorescence dequenching through cleavage was monitored using time-lapse fluorimetry.

[8] = tested on: LS174T cells; assay: 3D collagen cancer tissue model, peptide fluorescence in supernatant; format: cell-based, human
Experimental: Next, the activation of the nanosensors in a 3D ECM environment was probed. Forty LS174T cells were embedded in collagen I together with veiled or unmodified nanosensors (FIG. 4A). The constructs were monitored for protease activity by collecting the supernatant and measuring liberated peptide fragments under different conditions: L-amino acid peptide substrates were compared to D-amino acid counterparts to measure nonspecific background, and the role of DMPNE veiling was measured.
In order to correlate regions of light-activation with protease activity measurements, light-activated rhodamine dye was included to visualize regions exposed to light (FIG. 12A). To explore the ability to monitor protease activity with spatial and temporal control, only the left half of the gels was illuminated.
LS174T cells were encapsulated in 2.5 mg/mL collagen hydrogels (rat tail collagen type I, Corning). Imaging was done on Nikon Eclipse Ti Inverted Microscopes and Zeiss Stereoscope Discovery v20. When protease activity was measured, surrounding media was serum-free.

[9] = molecular target: T4, recombinant thrombin (Homo sapiens, UniProt P00734); assay: In vitro recombinant protease assay (fluorescence release); format: biochemical; settings: veiled vs unmodified
T4 construct: purchased Haematologic Technologies
Experimental: as §1

[10] = molecular target: T3, MMP9; assay: In vitro recombinant protease assay (fluorescence dequenching of NP-bound substrate); format: biochemical; set-up: purchased Enzo Life Sciences
Experimental: as §1
(§4) Light activation of peptides for biochemical studies was performed using a CL-1000 UV Cross-linker (UVP, 8 mW/cm^2). Power density was measured by an OAI 306 UV power meter at 365 nm. Typical exposure time for these studies was 10-30 min. For activation in cell and animal studies, Lumen Dynamics UV system with 365 nm fiber light guide was used (OmniCure 1000, 200 mW/cm^2). For in vivo activation at the tumor site, mice were anesthetized, and the light was guided through an optical cable and placed approximately 3 cm from the flank tumor. Each flank tumor was exposed for 30 s.

[11] = molecular target: T5, MMP13 (Homo sapiens, UniProt P45452); assay: as above; format: biochemical
T5 construct: purchased Enzo Life Sciences
Experimental: as §1, §4

[12] = tested on: LS174T cells; assay: Secreted protease activity assay, conditioned media; format: cell-based, human; settings: conditioned media from LS174T cells
Experimental: LS174T and CCD-18Co (ATCC CRL-1459) cells were cultured in Eagle's Minimal Essential Medium (ATCC) supplemented with 10% FBS (Gibco) and 1% penicillin-streptomycin (CellGro). Cells were passaged when confluence reached 80%. To isolate secreted proteases, after cells were plated, cells were washed and replaced in serum-free media. Conditioned media was collected 24 h later and exposed to C1-NPs to measure fluorescence dequenching.

[13] = healthy mice
From the text: as §3

[14] = molecular target: T6, MMP19 (Homo sapiens, UniProt Q99542); assay: In vitro recombinant protease assay with streptavidin depletion; format: biochemical; settings: ~100 nM MMP, one hour
T6 construct: purchased Enzo Life Sciences
T6 sequence (Q99542 98-508): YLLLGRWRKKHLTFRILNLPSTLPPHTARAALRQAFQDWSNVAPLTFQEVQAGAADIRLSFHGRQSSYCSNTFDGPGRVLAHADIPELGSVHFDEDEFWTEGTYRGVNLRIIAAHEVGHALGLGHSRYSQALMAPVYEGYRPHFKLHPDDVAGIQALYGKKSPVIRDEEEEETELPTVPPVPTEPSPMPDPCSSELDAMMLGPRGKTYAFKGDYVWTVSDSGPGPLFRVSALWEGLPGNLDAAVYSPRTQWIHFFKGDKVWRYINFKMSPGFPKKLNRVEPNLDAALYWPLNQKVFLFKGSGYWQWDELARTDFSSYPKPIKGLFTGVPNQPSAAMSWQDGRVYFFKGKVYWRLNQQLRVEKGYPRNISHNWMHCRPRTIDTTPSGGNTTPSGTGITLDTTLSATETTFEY
Experimental: as §2

[15] = molecular target: T1, MMP7; assay: as above; format: biochemical; settings: ~100 nM MMP, one hour
Experimental: as §2

[16] = increasing periods of light exposure, 8 mW/cm^2

## RLVGEGC [eGvndneeGffsarKsRLVGEGC]
[1]
  proteolysis by plasmin after coupling of DMNPE: reduced proteolysis
[1]; then UV
  proteolysis by plasmin after UV exposure: recovered

## CNC(=O)[C@@H](NC(=O)[C@H](CC(C)C)[C@H](O)C(=O)NO)C(C)(C)C [Marimastat]
[2]
  effect of inhibitor on proteolysis of C1-NP by MMP7: inhibited; also recorded: abrogates cleavage
[3]
  effect of inhibitor on proteolysis by LS174T secreted proteases: abrogated

## Biotin-CGPVGLIGK(Cy7)eGvndneeGffsar-NH2 [S1]
[4]
  relative proteolysis by MMP2: responded primarily
[3]
  cleavage by cell-secreted proteases: cleaved most significantly
[5]
  urine signal of free peptide: elevated
[6]
  relative proteolysis by MMP9: responded primarily

## STREAMs: C1-NPs whose peptide is veiled with photolabile DMNPE groups; unveiled by 365 nm light ({FAM}-[dS][dK]PLGLE(DMNPE)E(DMNPE)AGC(iron oxide nanoparticle); not fully specified)
[7]
  proteolytic cleavage after light exposure in agarose gel: dramatic increase in proteolytic cleavage
[8]; first day, no light
  liberated peptide fluorescence in supernatant: significantly less peptide fluorescence compared to unmodified L-amino acid sensors
[8]; left half of gels illuminated, 24 h, 30 s at 200 mW/cm^2
  peptide fluorescence in supernatant after light exposure: higher levels of peptide fluorescence
[9]
  cleavage by thrombin: reduced cleavage
[10]; [16]
  proteolysis by MMP9 after exposure to 365 nm light: elevated proteolysis in a light exposure-dependent manner
[10]; two weeks post-DMNPE-coupling
  stability of DMNPE conjugation (resistance to MMP9-mediated cleavage): equal levels of protection compared to freshly conjugated samples
[10]; veiled vs unmodified, no light
  proteolysis by MMP9 after conjugation with DMNPE: marked reduction in proteolysis
[11]; [16]
  proteolysis by MMP13 after exposure to 365 nm light: elevated proteolysis in a light exposure-dependent manner
[11]; veiled vs unmodified, no light
  proteolysis by MMP13 after conjugation with DMNPE: marked reduction in proteolysis

## FAM-sk-plGleea-GC ({FAM}-[dS][dK][dP][dL]G[dL][dE][dE][dA]GC; also: nanoparticle conjugated) [control NPs conjugated to D-amino acid stereoisomers]
[12]
  cleavage by cell-secreted proteases: not cleaved

## Biotin-CGPLGVRGKK(Cy7)eGvndneeGffsar-NH2 [S3]
[4]
  relative proteolysis by MMP2: responded primarily
[3]
  cleavage by cell-secreted proteases: minimal cleavage
[13]
  background cleavage of free peptide: lowest background cleavage
[5]
  urine signal of free peptide: similar
[6]
  relative proteolysis by MMP9: responded primarily

## Biotin-CGPVPLSLVMK(Cy7)eGvndneeGffsar-NH2 [S2]
[14]
  relative proteolysis by MMP19: cleaved efficiently
[15]
  relative proteolysis by MMP7: cleaved efficiently
[3]
  cleavage by cell-secreted proteases: minimal cleavage
[5]
  urine signal of free peptide: similar
